From PubChem BioAssay (NCI)
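Step 1: Grow cells in 96-well plates. Step 2: Expose to compound for 48 hours at 5 concentrations. Step 3: Interpolate endpoints linearly; if unreached, use highest concentration. Definition used: TGI = concentration required for complete inhibition of growth.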

Columns and labels:
Assay in all cases: NCI tumour cell line growth inhibition, 48 h
786-0 renal = test system: 786-0 renal
ACHN renal = test system: ACHN renal
EKVX NSCLC = test system: EKVX NSCLC
HT29 colon = test system: HT29 colon
K-562 leukemia = test system: K-562 leukemia
LXFL 529 NSCLC = test system: LXFL 529 NSCLC
SF-539 CNS = test system: SF-539 CNS
SNB-75 CNS = test system: SNB-75 CNS
SNB-78 CNS = test system: SNB-78 CNS
UO-31 renal = test system: UO-31 renal

Row | Structure (SMILES) | TGI (786-0 renal) [µM] | TGI (ACHN renal) [µM] | TGI (EKVX NSCLC) [µM] | TGI (HT29 colon) [µM] | TGI (K-562 leukemia) [µM] | TGI (LXFL 529 NSCLC) [µM] | TGI (SF-539 CNS) [µM] | TGI (SNB-75 CNS) [µM] | TGI (SNB-78 CNS) [µM] | TGI (UO-31 renal) [µM]
1 | O=C1c2ccccc2C2CCC1c1ccccc12 (stereo not given) | > 100 | > 100 | > 100 | > 100 | > 100 | > 100 | > 100 | > 100 | > 100 | 70.5
2 | CN(/N=C/c1ccnc2ccccc12)c1c([N+](=O)[O-])cc([N+](=O)[O-])cc1[N+](=O)[O-] | > 100 | > 100 | > 100 | > 100 | > 100 | > 100 | > 100 | > 100 | > 100 | > 100
3 | CC1C2C=C(O)C(=O)C(C2=O)C1c1ccccc1 (stereo not given) | > 100 | > 100 | > 100 | > 100 | > 100 | > 100 | > 100 | > 100 | > 100 | > 100
4 | COc1c(-c2ccccc2)nc2ccc(Oc3ccccc3)nn12 | > 100 | > 100 | > 100 | > 100 | > 100 | > 100 | > 100 | > 100 | > 100 | > 100
5 | CCc1nc2ccc(N=Nc3c(O)ccc4ccccc34)cc2[nH]1 | 37.7 | 31.5 | 36.1 | 44.1 | > 66.1 | 24.5 | 35.4 | 37.5 | 32.7 | 34.5
6 | Cn1cc2ccccc2c1-c1nc(F)nc(Oc2ccc3c(c2)CC[C@@H]2C3CC[C@@]3(C)C2C[C@H](O)[C@@H]3O)n1 (stereo not given in full) | 31.3 | 47.6 | 40.7 | 40.5 | 42.8 | 27.4 | 28.9 | 41.1 | 54.2 | 32.3
7 | COC(=O)C1C(=O)O[C@@H](c2cc(OC)c(OC)cc2OC)C1C(=O)OC (mixture of isomers) | > 100 | > 100 | > 100 | > 100 | > 100 | > 100 | > 100 | > 100 | > 100 | > 100
8 | O=c1c(Cl)c(Cl)cnn1CCCl | 25.3 | 2.35 | 15.9 | 10.8 | 5.18 | 3.1 | 29.5 | 24.1 | 30.7 | 10.7
9 | O=C1C2C3CC(C4C5C=CC(C5)C34)C2C2C3CC(C12)C1C2C=CC(C2)C31 (stereo not given) | > 100 | > 100 | > 100 | > 100 | > 100 | > 100 | > 100 | > 100 | > 100 | > 100
10 | O=C(/C=C\c1cccc2ccccc12)c1ccc(Cl)cc1Cl | 33.1 | 32.6 | > 100 | 35.8 | 38.6 | 32.8 | 53.2 | > 100 | 45.5 | > 100
11 | COc1ccc(OC)c(/C=N/N=C(\N)NO)c1 | > 100 | 81.4 | > 100 | > 100 | > 100 | > 100 | > 100 | > 100 | > 100 | 60.3
